Like-named read-outs stand apart in the source and are kept apart here.
How the values were obtained:
[1] = biological target: human GABAA α2β2γ1 receptor (Homo sapiens (Human), UniProt P47869+Q8N1C3); assay: Radioligand binding assay, competition for [3H]RO7239181, γ1-containing GABAA subtype α2β2γ1; settings: for γ2/γ1 Selectivity Ratio: Ki α1β3γ2 (nM)/Ki α2β2γ1 (nM); for LogSel: Log[Ki α1β3γ2 (nM)/Ki α2β2γ1 (nM)]
[2] = biological target: human GABAA α1β3γ2 receptor (Homo sapiens (Human), UniProt P14867+P18507); assay: Radioligand binding assay, competition for [3H]Flumazenil, γ2-containing GABAA subtype α1β3γ2
[3] = biological target: human GABAA α1β2γ1 receptor (Homo sapiens (Human), UniProt P14867+Q8N1C3); assay: Radioligand binding assay, competition for [3H]RO7239181, γ1-containing GABAA subtype α1β2γ1; settings: membranes of HEK293F cells, [3H]RO7239181 20-30 nM, mean of two determinations
Description: The affinity of compounds at GABAA γ1 subunit-containing receptors was measured by competition for [^3H]RO7239181 (67.3 Ci/mmol; Roche) binding to membranes from HEK293F cells (ThermoFisher R^79007) expressing human (transiently transfected) receptors of composition α5β2γ1, α2β2γ1, α1β2γ1.
Harvested pellets from HEK293F cells expressing the different GABAA receptor subtypes were resuspended in Mannitol Buffer pH 7.2-7.4 (Mannitol 0.29M, Triethylamine 10 mM, Acetic acid 10 mM, EDTA 1 mM plus protease inhibitors (20 tablets Complete, Roche Diagnostics Cat. No. 05 056 489 001 per liter)), washed two times and then resuspended at 1:10 to 1:15 dilution in the same buffer. Cell disruption was performed by stirring the suspension in a Parr vessel #4637 at 435 psi for 15 minutes, and then the suspensions were centrifuged at 1000×g for 15 minutes at 4° C. (Beckman Avanti J-HC: rotor JS-4.2). The supernatant (S1) was transferred in a 21 Schott flask and the pellet (P1) was resuspended with Mannitol Buffer up to 175 ml. The resuspended pellet was transferred into a 250 ml Corning centrifugal beaker and centrifuged at 1500×g for 10 minutes at 4° C. (Beckman Avanti J-HC: rotor JS-4.2). The supernatant (S1) was then transferred in the 21 Schott flask and the pellet was discarded. The supernatants (S1) were centrifuged in 500 ml Beckman polypropylene centrifugal beaker at 15 000×g for 30 minutes at 4° C. (Beckman Avanti J-20 XP: rotor JLA-10.500). The pellet (P2) was resuspended with Mannitol Buffer 1:1 and frozen at −80° C. The supernatant (S2) was centrifuged in 100 ml Beckman polypropylene centrifugal tubes at 48000×g for 50 minutes at 4° C. (Beckman Avanti J-20 XP: rotor JA-18). The supernatant (S3) was discarded and the pellet (P3) was resuspended with 1:1 Mannitol Buffer. The P2 and P3 protein concentration was determined with the BIORAD Standard assay method with bovine serum albumin as standard and measured on the NANO-Drop 1000. The membrane suspension was aliquots (500 μl per tube) and stored at −80° C. until required.
Membrane homogenates were resuspended and polytronised (Polytron PT1200E Kinematica AG) in Potassium Phosphate 10 mM, KCl 100 mM binding buffer at pH 7.4 to a final assay concentration determined with a previous experiment.
Assays were incubated to equilibrium for 1 hour at 4° C. and then, membranes were filtered onto unifilter (96-well white microplate with bonded GF/C filters preincubated 20-50 minutes in 0.3% Polyethylenimine) with a Filtermate 196 harvester (Packard BioScience) and washed 4 times with cold Potassium Phosphate 10 mM pH 7.4, KCl 100 mM binding buffer. After anhydrousing, filter-retained radioactivity was detected by liquid scintillation counting. Ki values were calculated using Excel-Fit (Microsoft) and are the means of two determinations.

[4] = read-out: Ki h-GABAA α2β2γ1, Table 2, membranes of HEK293F cells, [3H]RO7239181

Structure (SMILES) | Ki [1] [nM] | γ2/γ1 Selectivity Ratio [1] | LogSel [1] | Ki [1, 4] [nM] | Ki [2] [nM] | Ki [3] [nM]
C[C@@H]1N=C(c2c(F)cccc2F)c2c(ccc(C(F)(F)F)c2Cl)-n2ccc(=O)nc21 [Example 10, (5S)-8-chloro-7-(2,6-difluorophenyl)-5-methyl-9-(trifluoromethyl)-5H-pyrimido[1,2-a][1,4]benzodiazepin-3-one] | 54.6 | 112.1 | 2.05 | 54.6 | 6120 | 159
C[C@@H]1N=C(c2c(F)cccc2F)c2c(ccc(Cl)c2Cl)-n2ccc(=O)nc21 [Example 4, (5S)-8,9-dichloro-7-(2,6-difluorophenyl)-5-methyl-5H-pyrimido[1,2-a][1,4]benzodiazepin-3-one] | 13.3 | 68.7 | 1.84 | 13.3 | 912 | 25.6
